# Measurements taken from patent US7803930B2, “Antisense modulation of apolipoprotein B-expression” (Isis Pharmaceuticals, Inc., priority 2002, dated 2010).
# In the oligonucleotide strings, read from the 5' end, every base follows the letter of its sugar. An asterisk marks phosphorothioate; unmarked linkages are phosphodiester. Other units and linkages are bracketed, terminal groups are in braces. A string of capitals states the bases alone. e = 2'-O-(2-methoxyethyl) (MOE); [5mC] = 5-methylcytosine; d = 2'-deoxy (DNA)
# Test system: human apolipoprotein B mRNA
# Test: Inhibition of human apolipoprotein B mRNA levels in HepG2 cells, quantitative real-time PCR
# Format: cell-based
# Conditions: for % INHIB 50 nm / % INHIB 150 nm: Table 11 gene walk; for % INHIB 50 nm / % INHIB 150 nm / % INHIB / % Change in apolipoprotein B mRNA expression: HepG2 cells; for % INHIB 50 nm / % INHIB 150 nm / % INHIB (inhibition of human apolipoprotein B mRNA levels) / % INHIB: averages from two experiments; for % INHIB (inhibition of human apolipoprotein B mRNA levels): HepG2 cells treated with 150 nM of compound, quantitative real-time PCR; for % INHIB: human apolipoprotein B mRNA, oligonucleotides targeting genomic sequence SEQ ID NO 334; for % Change in apolipoprotein B mRNA expression: 24 hour (Table 41)
# Procedure, shortened: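 Apolipoprotein B transcript was quantified by one-step TaqMan RT-PCR, normalized to GAPDH or RiboGreen RNA, and expressed as percent inhibition against an untreated-sample standard curve. HepG2 cells were harvested 16-24 h after oligonucleotide exposure, which was delivered with 3.75 μg/mL Lipofectin over 4-7 h at 80% confluency.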
substance,measurement,setting,value
308593 (antisense e[5mC]*eT*eT*e[5mC]*eG*d[5mC]*dA*d[5mC]*d[5mC]*dT*dT*d[5mC]*dT*dG*d[5mC]*eT*eT*eG*eA*eG) [compound 308593],% INHIB 50 nm,50 nM,41%
same,% INHIB 150 nm,150 nM,80%
281611 (antisense e[5mC]*eT*eG*eT*e[5mC]*d[5mC]*dT*d[5mC]*dT*d[5mC]*dT*d[5mC]*dT*dG*dG*eA*eG*e[5mC]*eT*e[5mC]) [compound 281611],% INHIB (inhibition of human apolipoprotein B mRNA levels),,93%
301199 (antisense eT*e[5mC]*eT*e[5mC]*e[5mC]*dA*dG*dA*dT*d[5mC]*d[5mC]*dT*dA*dA*d[5mC]*eA*eT*eA*eA*eA) [compound 301199],% INHIB,,19%
301162 (antisense e[5mC]*eA*eT*e[5mC]*eT*d[5mC]*dT*dG*dA*dG*d[5mC]*d[5mC]*d[5mC]*d[5mC]*dT*eT*eA*e[5mC]*e[5mC]*eA) [compound 301162],% INHIB,,24%
301124 (eT*eT*eT*e[5mC]*e[5mC]*dA*dA*dT*dG*dA*d[5mC]*d[5mC]*dT*dG*d[5mC]*eA*eT*eT*eG*eA; antisense) [compound 301124],% INHIB,,48%
301080 (e[5mC]*e[5mC]*e[5mC]*eA*eG*d[5mC]*dA*dA*dA*d[5mC]*dA*d[5mC]*dA*dG*dG*eT*eG*eA*eA*eG; antisense) [compound 301080],% INHIB,,25%
301213 (antisense eT*eA*eG*eA*eA*d[5mC]*d[5mC]*dA*dT*dG*dT*dT*dT*dG*dG*eT*e[5mC]*eT*eT*e[5mC]) [compound 301213],% INHIB,,35%
281621 (antisense e[5mC]*eA*eG*eT*eG*d[5mC]*d[5mC]*dT*dA*dA*dG*dA*dT*dG*dT*e[5mC]*eA*eG*e[5mC]*eA) [compound 281621],% INHIB (inhibition of human apolipoprotein B mRNA levels),,53%
271014 (antisense e[5mC]*e[5mC]*e[5mC]*eA*eG*dA*dG*dA*dG*dG*d[5mC]*d[5mC]*dA*dA*dG*e[5mC]*eT*e[5mC]*eT*eG) [compound 271014],% INHIB (inhibition of human apolipoprotein B mRNA levels),,54%
301113 (antisense eA*eG*eG*eT*eG*d[5mC]*dA*dA*dG*dA*dT*dG*dT*dT*d[5mC]*e[5mC]*eT*e[5mC]*eT*eG) [compound 301113],% INHIB,,46%
308608 (eA*eT*eA*eT*eT*dT*dG*dA*dA*dT*dG*dT*d[5mC]*dA*dT*eG*eG*eT*eA*eG; antisense) [compound 308608],% INHIB 50 nm,50 nM,70%
same,% INHIB 150 nm,150 nM,85%
301069 (eG*eG*e[5mC]*eT*eG*dA*dA*dG*d[5mC]*d[5mC]*d[5mC]*dA*dT*dG*d[5mC]*eT*eG*eA*e[5mC]*eT; antisense) [compound 301069],% INHIB,,44%
301057 (eT*eG*e[5mC]*eA*eG*dA*d[5mC]*dT*dA*dG*dG*dA*dG*dT*dG*eA*eA*eA*eG*eT; antisense) [compound 301057],% INHIB,,30%
301170 (antisense eT*eT*e[5mC]*eA*eT*dA*dT*dG*dA*dA*dA*dT*d[5mC]*dT*d[5mC]*e[5mC]*eT*eA*e[5mC]*eT) [compound 301170],% INHIB,,40%
301210 (antisense e[5mC]*eT*eA*eT*eG*dG*d[5mC]*dT*dG*dA*dG*d[5mC]*dT*dT*dG*e[5mC]*e[5mC]*eT*eA*eT) [compound 301210],% INHIB,,33%
301024 (eA*eA*eA*eT*eG*dA*dA*dG*dA*dT*dT*dT*d[5mC]*dT*dT*eT*eT*eA*eA*eA; antisense) [compound 301024],% INHIB (inhibition of human apolipoprotein B mRNA levels),,5%
301042 (eA*eA*eA*eT*eG*d[5mC]*d[5mC]*dA*dT*d[5mC]*d[5mC]*dT*dT*d[5mC]*dT*eG*eA*eG*eT*eT; antisense) [compound 301042],% INHIB (inhibition of human apolipoprotein B mRNA levels),,81%
301073 (e[5mC]*eT*eG*eT*eT*d[5mC]*dT*d[5mC]*d[5mC]*dA*d[5mC]*d[5mC]*d[5mC]*dA*dT*eA*eT*e[5mC]*eA*eG; antisense) [compound 301073],% INHIB,,37%
271037 (eA*eA*eG*eA*e[5mC]*d[5mC]*d[5mC]*dA*dG*dA*dA*dT*dG*dA*dA*eT*e[5mC]*e[5mC]*eG*eG; antisense) [compound 271037],% INHIB (inhibition of human apolipoprotein B mRNA levels),,23%
281620 (antisense e[5mC]*e[5mC]*eT*eG*eA*dT*dA*dT*dT*d[5mC]*dA*dG*dA*dA*d[5mC]*eG*e[5mC]*eA*eG*e[5mC]) [compound 281620],% INHIB (inhibition of human apolipoprotein B mRNA levels),,89%
301103 (antisense eT*e[5mC]*eT*eA*eA*dG*dA*dG*dG*dT*dA*dG*dA*dG*d[5mC]*eT*eA*eA*eA*eG) [compound 301103],% INHIB,,7%
301141 (eT*eA*e[5mC]*eA*eA*dG*dG*dT*dG*dT*dT*dT*d[5mC]*dT*dT*eA*eA*eG*eA*eA; antisense) [compound 301141],% INHIB,,38%
301112 (antisense eG*eG*eA*eA*eA*d[5mC]*dT*d[5mC]*dA*d[5mC]*dT*dT*dG*dT*dT*eG*eA*e[5mC]*e[5mC]*eG) [compound 301112],% INHIB,,25%
271001 (antisense e[5mC]*e[5mC]*e[5mC]*eA*eT*dG*dG*dT*dA*dG*dA*dA*dT*dT*dT*eG*eG*eA*e[5mC]*eA) [compound 271001],% INHIB (inhibition of human apolipoprotein B mRNA levels),,53%
271011 (antisense eG*eT*e[5mC]*eT*eG*dG*d[5mC]*dA*dA*dT*d[5mC]*d[5mC]*d[5mC]*dA*dT*eG*eT*eT*e[5mC]*eT) [compound 271011],% INHIB (inhibition of human apolipoprotein B mRNA levels),,51%
270986 (antisense e[5mC]*eT*e[5mC]*e[5mC]*eA*d[5mC]*dT*dG*dG*dA*dA*d[5mC]*dT*d[5mC]*dT*e[5mC]*eA*eG*e[5mC]*e[5mC]) [compound 270986],% INHIB (inhibition of human apolipoprotein B mRNA levels),,0%
301061 (e[5mC]*eA*eT*eG*eA*d[5mC]*dT*dT*dA*d[5mC]*d[5mC]*dT*dG*dG*dA*e[5mC]*eA*eT*eG*eG; antisense) [compound 301061],% INHIB,,52%
301059 (eA*eT*e[5mC]*eA*eG*dA*dG*d[5mC]*dA*d[5mC]*d[5mC]*dA*dA*dA*dG*eG*eG*eA*eA*eT; antisense) [compound 301059],% INHIB,,12%
301134 (e[5mC]*e[5mC]*eA*eA*eG*d[5mC]*d[5mC]*dA*dA*dT*d[5mC]*dT*dG*dA*dG*eA*eA*eA*eG*eA; antisense) [compound 301134],% INHIB,,25%
301132 (eT*e[5mC]*eA*e[5mC]*eA*d[5mC]*dT*dT*dA*d[5mC]*d[5mC]*dT*d[5mC]*dG*dA*eT*eG*eA*eG*eG; antisense) [compound 301132],% INHIB,,29%
301096 (antisense eA*eT*eA*e[5mC]*eT*dT*dA*dT*dT*d[5mC]*d[5mC]*dT*dG*dG*dT*eA*eA*e[5mC]*e[5mC]*eA) [compound 301096],% INHIB,,24%
301187 (antisense eG*e[5mC]*eT*e[5mC]*eT*d[5mC]*dT*d[5mC]*dT*dG*d[5mC]*d[5mC]*dA*d[5mC]*dT*e[5mC]*eT*eG*eA*eT) [compound 301187],% INHIB,,47%
271022 (antisense eG*eA*eT*eA*eG*dA*dA*dT*dA*dT*dT*dG*d[5mC]*dT*d[5mC]*eT*eG*e[5mC]*eA*eA) [compound 271022],% INHIB (inhibition of human apolipoprotein B mRNA levels),,100%
271046 (e[5mC]*e[5mC]*e[5mC]*eT*eA*dG*dT*dG*dT*dA*dT*dA*dT*d[5mC]*d[5mC]*e[5mC]*eA*eG*eG*eT; antisense) [compound 271046],% INHIB (inhibition of human apolipoprotein B mRNA levels),,61%
271016 (antisense eA*e[5mC]*e[5mC]*e[5mC]*eA*dG*dA*dA*dT*d[5mC]*dA*dT*dG*dG*d[5mC]*e[5mC]*eT*eG*eA*eT) [compound 271016],% INHIB (inhibition of human apolipoprotein B mRNA levels),,19%
301205 (antisense e[5mC]*eA*eA*eT*eT*d[5mC]*dA*dA*dT*dA*dA*dA*dA*dG*d[5mC]*eT*e[5mC]*e[5mC]*eA*eT) [compound 301205],% INHIB,,31%
"332780 (antisense CCTCAGTCTGCTTCGCAC; sugars from the 5' end e4 d10 e4, all phosphorothioate, methylation of C not given here) [compound 332780]",% Change in apolipoprotein B mRNA expression,10 nM,−3%
same,% Change in apolipoprotein B mRNA expression,50 nM,−43%
same,% Change in apolipoprotein B mRNA expression,150 nM,−74%
308599 (antisense eA*eG*e[5mC]*e[5mC]*eT*d[5mC]*dA*dG*dT*d[5mC]*dT*dG*d[5mC]*dT*dT*e[5mC]*eG*e[5mC]*eA*e[5mC]) [compound 308599],% INHIB 50 nm,50 nM,79%
same,% INHIB 150 nm,150 nM,94%
301184 (antisense eT*eA*eT*eT*eG*dT*dG*dT*dG*d[5mC]*dT*dG*dG*dG*d[5mC]*eA*e[5mC]*eT*eG*e[5mC]) [compound 301184],% INHIB,,52%
271031 (e[5mC]*eA*eG*eT*eG*dT*dG*dA*dT*dG*dA*d[5mC]*dA*d[5mC]*dT*eT*eG*eA*eT*eT; antisense) [compound 271031],% INHIB (inhibition of human apolipoprotein B mRNA levels),,49%
281604 (antisense e[5mC]*eT*eG*eA*eG*dT*dT*d[5mC]*dA*dA*dG*dA*dT*dA*dT*eT*eG*eG*e[5mC]*eA) [compound 281604],% INHIB (inhibition of human apolipoprotein B mRNA levels),,78%
301090 (antisense eA*eT*eT*eA*eG*dA*d[5mC]*dT*dG*dG*dA*dA*dG*d[5mC]*dA*eT*e[5mC]*e[5mC]*eT*eG) [compound 301090],% INHIB,,39%
301135 (eA*eA*eA*eT*eA*d[5mC]*dA*d[5mC]*dA*d[5mC]*d[5mC]*dT*dG*d[5mC]*dT*e[5mC]*eA*eT*eG*eT; antisense) [compound 301135],% INHIB,,20%
301049 (eT*e[5mC]*eT*eG*eT*dA*dA*dG*dA*d[5mC]*dA*dG*dG*dA*dG*eA*eA*eA*eG*eA; antisense) [compound 301049],% INHIB,,41%
